# Measurements as given in publication PMC6270205, “Antimicrobial and Selected In Vitro Enzyme Inhibitory Effects of Leaf Extracts, Flavonols and Indole Alkaloids Isolated from Croton menyharthii” (Molecules, 2013).
# Where two headings read alike, the source gives them in different places.
# Columns and labels:
# yeast α-glucosidase = target: T1, yeast α-glucosidase (Saccharomyces cerevisiae, UniProt P53341); assay: α-Glucosidase inhibitory activity; format: biochemical, Saccharomyces cervisiae
# T1 construct: purchased Sigma-Aldrich
# Experimental: All thin layer chromatography analyses were performed at room temperature using pre-coated plates (MERCK, silica gel 60 F254 0.2 thickness). Detection of spots was done by viewing under UV light (254 and 366 nm). Open column chromatography was carried out using silica gel (230-400 mesh) and Sephadex LH-20. Nuclear magnetic resonance (NMR) data were obtained using Bruker spectrometers (400 and 500 MHz). Chemical shifts are expressed in parts per million (ppm).
# α-Glucosidase inhibitory activity was determined as previously described by Tao et al. with modifications as detailed by Rengasamy et al.. Briefly, yeast α-glucosidase (0.1 Unit/mL) was dissolved in 0.1 M potassium phosphate buffer (pH 6.8), this was used as the enzyme solution. The control experiment contained the same reaction mixture, but the sample solution was replaced with the same volume of phosphate buffer. […] The determinations were carried out in triplicate. The percentage inhibition (%) was calculated using the following equation: % Inhibition = (Acontrol − Asample)/Acontrol × 100(1) where Acontrol is the absorbance of the control and Asample is the absorbance of the sample. The IC50, which is the concentration of the sample required to inhibit 50% of the enzyme was determined for each sample.
# [1] = test system: Candida albicans (ATCC 10231); assay: Antifungal microdilution bioassay (MIC); format: cell-based
# Experimental: The antifungal activity of the crude methanol extract, fractions and isolated compounds were evaluated against Candida albicans (ATCC 10231) using the micro-dilution assay, modified for an antifungal assay. An overnight fungal culture was prepared in 10 mL yeast malt (YM) broth. Four hundred microliters of the overnight Candida culture were added to 4 mL of sterile saline solution. The absorbance was read at 530 nm and adjusted with sterile saline solution to match that of a […] McFarland standard solution. From this prepared stock, a 1:1000 dilution with sterile YM broth was prepared to give an approximately 10^6 cfu/mL culture. One hundred microlitres of the resuspended (in 70% aqueous acetone) crude extract, fractions (50 mg/mL) or compounds (1 mg/mL) were two-fold serially diluted with sterile distilled water, in duplicate down a 96-well microtitre plate. A similar 2-fold serial dilution of amphotericin B (Sigma, 2.5 mg/mL) was used as a positive control. Water, 70% aqueous acetone and fungal free broth were included as negative/solvent controls. The screening was done in triplicate and repeated twice for each extract, the MIC and MFC values were recorded.
# [2] = target: T2, human recombinant COX-2 enzyme (Homo sapiens, UniProt P35354); assay: Cyclooxygenase (COX-2) inhibitory bioassay; format: biochemical; settings: read-out: COX-2 inhibitory activity level
# T2 construct: His6 (N); purchased Sigma-Aldrich; host or cells: Baculovirus overexpression system in Sf 21 cells
# T2 sequence (P35354 18-604): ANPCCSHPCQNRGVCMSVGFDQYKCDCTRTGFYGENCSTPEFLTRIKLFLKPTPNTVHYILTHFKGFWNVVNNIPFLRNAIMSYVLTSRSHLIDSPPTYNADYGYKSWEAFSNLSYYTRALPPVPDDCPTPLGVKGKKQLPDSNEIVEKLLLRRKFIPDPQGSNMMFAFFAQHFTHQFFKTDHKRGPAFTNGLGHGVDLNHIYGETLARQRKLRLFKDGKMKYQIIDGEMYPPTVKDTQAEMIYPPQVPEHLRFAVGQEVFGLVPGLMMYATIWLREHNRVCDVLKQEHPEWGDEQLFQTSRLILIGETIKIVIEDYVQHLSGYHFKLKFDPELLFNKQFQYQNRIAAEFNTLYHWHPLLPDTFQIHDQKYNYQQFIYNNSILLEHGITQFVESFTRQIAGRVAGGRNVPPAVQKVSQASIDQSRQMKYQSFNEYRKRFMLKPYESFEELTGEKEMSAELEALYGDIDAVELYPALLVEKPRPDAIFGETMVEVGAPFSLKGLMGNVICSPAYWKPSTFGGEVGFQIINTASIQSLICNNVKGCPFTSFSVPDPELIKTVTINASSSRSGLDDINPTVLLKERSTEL
# [3] = test system: Escherichia coli ATCC 11775; assay: Antibacterial microdilution bioassay (MIC); format: cell-based; settings: for Antimicrobial MIC E.c.: n = 3
# Experimental: (§1) Minimum inhibitory concentration (MIC) values for antibacterial activity of the crude methanol extract, fractions and isolated compounds were determined using the microdilution bioassay in a 96-well (Greiner Bio-one GmbH, Frickenhausen, Germany) microtitre plates. One hundred microlitres of the resuspended (in 70% aqueous acetone) crude extract, fractions (50 mg/mL) or compounds (1 mg/mL) was two-fold serially diluted with sterile distilled water, in duplicate down the microtitre plate for each of the four bacteria used. A similar two-fold serial dilution of neomycin (Sigma) (0.1 mg/mL) was used as a positive control against each bacterium. Water and 70% aqueous acetone were included as a negative/solvent controls. The screening was done in triplicate and repeated twice for each extract.
# [4] = test system: Bacillus subtilis ATCC 6051; assay: Antibacterial microdilution bioassay (MIC); format: cell-based; settings: for Antimicrobial MIC B.s.: n = 3
# Experimental: as §1
# [5] = test system: Klebsiella pneumoniae ATCC 13883; assay: Antibacterial microdilution bioassay (MIC); format: cell-based; settings: for MIC: Klebsiella pneumoniae
# Experimental: as §1
# [6] = test system: Staphylococcus aureus ATCC 12600; assay: Antibacterial microdilution bioassay (MIC); format: cell-based; settings: for Antimicrobial MIC S.a.: n = 3
# Experimental: as §1
# [7] = target: T3, AChE (isolated from electric eels) (Electrophorus electricus, UniProt O42275); assay: biochemical
# T3 construct: AChE (isolated from electric eels) (type VI-S lyophilized powder); purchased Sigma-Aldrich type VI-S lyophilized powder; host or cells: isolated from electric eels
# Experimental: Inhibition of AChE by the crude methanol extract, fractions and isolated compounds was done as described by Ellman et al. with some modifications. The acetylcholinesterase enzyme activity was measured by spectrophotometric observation of the increase in a yellow colour produced from thiocholine when it reacts with the dithiobisnitrobenzoate ion. AChE (isolated from electric eels) (type VI-S lyophilized powder) was obtained from Sigma-Aldrich. The assay was carried out in a 96-well microtitre plate. The crude methanol extract, fractions and isolated compounds were at initial concentrations of 10 mg/mL (crude extract and fractions) and 1 mg/mL (pure compounds). The increase in absorbance due to the spontaneous hydrolysis of the substrate was corrected by subtracting the ratio of reaction before adding the enzyme from the rate after adding the enzyme (0.2 U/mL). Percentage of inhibition was calculated by comparing the reaction rates for the sample to the negative control. […] The IC50 values of extracts and compounds were calculated using Graph Pad Prism (version 5.0) statistical software programme for Windows (GraphPad Software Inc.).
# [8] = read-out: α-Glucosidase inhibitory activity Percentage inhibition
# [9] = ATCC10231, read-out: Antimicrobial MIC C.a.
# [10] = ATCC11775, n = 3, read-out: Antimicrobial MIC E.c.
# [11] = ATCC6051, n = 3, read-out: Antimicrobial MIC B.s.
# [12] = ATCC13883, Klebsiella pneumonia, n = 3, read-out: Antimicrobial MIC K.p.
# [13] = ATCC12600, n = 3, read-out: Antimicrobial MIC S.a.
# [14] = ATCC10231, n = 3, read-out: Antimicrobial MIC C.a.
# [15] = pure compounds at 300 µg/mL, mean ± standard error, read-out: AChE inhibitory activity Percentage inhibition
# [16] = pure compounds at 300 µg/mL, mean ± standard error
# T3 sequence (O42275 24-633): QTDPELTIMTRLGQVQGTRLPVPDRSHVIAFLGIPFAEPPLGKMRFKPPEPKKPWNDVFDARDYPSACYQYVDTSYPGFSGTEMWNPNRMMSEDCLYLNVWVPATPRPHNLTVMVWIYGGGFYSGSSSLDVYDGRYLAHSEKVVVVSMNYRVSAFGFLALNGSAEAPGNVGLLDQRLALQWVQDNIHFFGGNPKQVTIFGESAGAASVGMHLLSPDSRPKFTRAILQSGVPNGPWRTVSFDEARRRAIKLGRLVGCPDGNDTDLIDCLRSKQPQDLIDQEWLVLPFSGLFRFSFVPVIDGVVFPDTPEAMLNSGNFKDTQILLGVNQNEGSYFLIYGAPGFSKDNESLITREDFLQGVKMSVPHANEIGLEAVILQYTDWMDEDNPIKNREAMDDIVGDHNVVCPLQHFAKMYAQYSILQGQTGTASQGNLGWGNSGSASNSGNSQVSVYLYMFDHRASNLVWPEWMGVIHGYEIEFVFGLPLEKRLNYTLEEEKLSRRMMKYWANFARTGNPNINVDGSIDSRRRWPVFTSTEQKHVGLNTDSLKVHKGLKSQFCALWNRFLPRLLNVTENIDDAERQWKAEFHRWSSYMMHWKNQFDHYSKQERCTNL
# T1 sequence (P53341 whole entry): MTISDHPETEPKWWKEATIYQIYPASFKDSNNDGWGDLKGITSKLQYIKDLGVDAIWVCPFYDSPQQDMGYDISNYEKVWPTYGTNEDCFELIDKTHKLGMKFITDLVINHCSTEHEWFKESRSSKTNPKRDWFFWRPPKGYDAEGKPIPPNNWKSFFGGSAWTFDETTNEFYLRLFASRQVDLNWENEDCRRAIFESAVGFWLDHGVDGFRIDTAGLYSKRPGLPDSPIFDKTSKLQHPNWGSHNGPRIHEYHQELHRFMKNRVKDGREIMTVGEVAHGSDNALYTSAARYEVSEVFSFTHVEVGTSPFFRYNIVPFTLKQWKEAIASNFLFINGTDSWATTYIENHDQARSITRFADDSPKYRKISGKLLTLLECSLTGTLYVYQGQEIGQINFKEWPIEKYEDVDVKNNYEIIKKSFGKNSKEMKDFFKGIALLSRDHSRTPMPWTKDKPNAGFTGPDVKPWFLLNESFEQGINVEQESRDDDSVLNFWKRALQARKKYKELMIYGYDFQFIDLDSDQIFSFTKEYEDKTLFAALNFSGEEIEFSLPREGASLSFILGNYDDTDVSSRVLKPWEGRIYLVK
compound,measurement,setting,value
"C[C@H]1O[C@H](O[C@H]2[C@H](O)[C@@H](O)[C@@H](O[C@H]3[C@H](O)[C@@H](O)C(O)O[C@@H]3CO)O[C@@H]2CO)[C@H](O)[C@@H](O)[C@@H]1N[C@H]1C=C(CO)[C@@H](O)[C@H](O)[C@H]1O (stereo partly shown) [Acarbose, acarbose, reference compound]",inhibition at 250 µg/mL,yeast α-glucosidase; [8],83.6 ± 2.6%
"C[C@@H]1[C@H](O)[C@@H](C)/C=C/C=C/C=C/C=C/C=C/C=C/C=C/[C@H](O[C@@H]2O[C@H](C)[C@@H](O)[C@H](N)[C@@H]2O)C[C@@H]2O[C@](O)(C[C@@H](O)C[C@@H](O)[C@H](O)CC[C@@H](O)C[C@@H](O)CC(=O)O[C@H]1C)C[C@H](O)[C@H]2C(=O)O [Amphotericin B, amphotericin B, reference compound]",MIC,[1]; [9],9.77 µg/mL
"CC1OC(Oc2c(-c3cc(O)c(O)c(O)c3)oc3cc(O)cc(O)c3c2=O)C(O)C(O)C1O (stereo not shown) [Myricetrin-3-O-rhamnoside (1), Myricetrin-3-O-rhamnoside]",inhibition at 25 µg/mL,[2],< 20%
same,MIC,"[3]; ATCC11775, read-out: Antimicrobial MIC E.c.",250 µg/mL
same,MIC,"[4]; ATCC6051, read-out: Antimicrobial MIC B.s.",250 µg/mL
same,MIC,"[5]; ATCC13883, read-out: Antimicrobial MIC K.p.",250 µg/mL
same,MIC,"[6]; ATCC12600, read-out: Antimicrobial MIC S.a.",250 µg/mL
same,MIC,[1]; [9],250 µg/mL
same,IC50,yeast α-glucosidase,170 µM
same,inhibition at 300 µg/mL,yeast α-glucosidase; [8],89.1 ± 5.3%
same,IC50,[7],140 µM
same,inhibition at 300 µg/mL,[7]; read-out: AChE inhibitory activity Percentage inhibition,54.3 ± 1.1%
"O=c1c(O)c(-c2ccc(O)c(O)c2)oc2cc(O)cc(O)c12 [Quercetin (3), 3,3', 4',5,7-pentahydroxyflavone]",MIC,[3]; [10],> 250 µg/mL
same,MIC,[4]; [11],30 µg/mL
same,MIC,[5]; [12],250 µg/mL
same,MIC,[6]; [13],> 250 µg/mL
same,MIC,[1]; [14],20 µg/mL
same,inhibition at 300 µg/mL,yeast α-glucosidase; [8],67.1 ± 4.2%
same,inhibition at 300 µg/mL,[7]; [15],56.6 ± 0.3%
"O=C(/C=C/c1ccc(O)cc1)NCCc1c[nH]c2ccc(O)cc12 [Trans-N-(p-coumaroyl) serotonin (4), (E)-N-(4-hydroxycinnamoyl)-5-hydroxytryptamine]",MIC,[3]; [10],250 µg/mL
same,MIC,[4]; [11],250 µg/mL
same,MIC,[5]; [12],250 µg/mL
same,MIC,[6]; [13],250 µg/mL
same,MIC,[1]; [14],130 µg/mL
same,IC50,yeast α-glucosidase,16.4 µM
same,inhibition at 300 µg/mL,yeast α-glucosidase; [8],97.3 ± 3.2%
same,IC50,"[7]; mean ± standard error, read-out: AChE inhibitory activity IC50 (converted)",46.5 µM
same,inhibition at 300 µg/mL,[7]; [15],72.6 ± 4.9%
same,inhibition at 300 µg/mL,"[7]; pure compounds at 300 µg/mL, read-out: AChE inhibitory activity level",70 to 100%
Quercetin-3-O-rhamnoside [Quercetin-3-O-rhamnoside (2)],Antimicrobial MIC E.c.,[3],>250 µg/mL
same,Antimicrobial MIC B.s.,[4],130 µg/mL
same,Antimicrobial MIC K.p.,"[5]; Klebsiella pneumonia, n = 3",>250 µg/mL
same,Antimicrobial MIC S.a.,[6],>250 µg/mL
same,Antimicrobial MIC C.a.,[1]; n = 3,250 µg/mL
same,α-Glucosidase inhibitory activity Percentage inhibition,yeast α-glucosidase; [16],47.0 ± 1.7 a
same,AChE inhibitory activity Percentage inhibition,[7]; [16],"53.3 ± 1.0 b,c"
neomycin [reference compound],Antimicrobial MIC E.c.,[3],0.8 µg/mL
same,Antimicrobial MIC B.s.,[4],1.6 µg/mL
same,Antimicrobial MIC K.p.,"[5]; Klebsiella pneumonia, n = 3",0.8 µg/mL
same,Antimicrobial MIC S.a.,[6],1.6 µg/mL
